Test results published in PMC2631555 (Bioorganic & medicinal chemistry letters, 2008).

Legend:
[1] = Solubility in PBS + 5% DMSO; conditions: 2 h, room temperature
[2] = tested on: Vero cells; conditions: read-out: Vero EC50; 48 h exposure, CellTiter-Glo
[3] = PAMPA
[4] = tested on: tubulin; conditions: 10 µM compound; purified tubulin 7.2 µM, GTP, 37°C, 0.5% DMSO

COc1cc2c(c(OC)c1OC)-c1ccc(OC)c(=O)cc1[C@@H](NC(C)=O)CC2 [Colchicine]
Solubility [1]: highly soluble

COc1cc2c(c(OC)c1OC)-c1ccc(OC)c(=O)cc1[C@@H](NC(=O)CCCCCNC(=O)COc1ccc(/C=C/C3=[N+]4C(=Cc5ccc(-c6ccc[nH]6)n5[B-]4(F)F)C=C3)cc1)CC2 [colchicine-646]
EC50 [2]: > 10 µM | Permeability [3]: <10 10^-6 cm/s

CC(=O)O[C@H]1C(=O)[C@@]2(C)[C@H]([C@H](OC(=O)c3ccccc3)[C@]3(O)C[C@H](OC(=O)[C@H](O)[C@@H](NC(=O)c4ccccc4)c4ccccc4)C(C)=C1C3(C)C)[C@]1(OC(C)=O)CO[C@@H]1C[C@@H]2O [paclitaxel]
Microtubule formation compared with untreated tubulin [4]: enhanced
